Patent US20240408068A1, “Helicase Primase Inhibitors For Treating Cancer In A Combination Therapy With Oncolytic Viruses” (priority 2018, published 2024)
Where two headings read alike, the source gives them in different places.

Assays:
HSV-1 [1] = assay: In vitro activity, HSV-1 infected Vero cells; type: cell-based
Experimental: (§1) The in vitro activity of the new compounds was measured as described in WO2017/174640 and in WO2019/068817.

HSV-2 = assay: In vitro activity, HSV-2 infected Vero cells; type: cell-based
Experimental: as §1

HSV-1 ACV resistant = assay: In vitro activity, HSV-1 ACV resistant; type: cell-based; conditions: Human alphaherpesvirus 1
Experimental: as §1

HSV-1 [2] = assay: Second oHSV experiment (repeated virus injection): number of dead animals by day; type: in vivo, mice; conditions: for Number of dead animals by day: n=10; for rescue of mice from virus-induced death: second experiment, multiple intratumoral HSV injections, 10 mg/kg po
Experimental: The methods of the first experiment were used and the experimental design was modified in the second experiment as follows: • 1. The oncolytic herpesvirus was, in contrast to the first experiment, injected multiple times at a constant dose at distinct intervals. • 2. In addition to Example 7(-) used in the first experiment, the efficacy of a series of helicase primase inhibitors was tested in the second experiment to enable the class of helicase primase inhibitors in general.
Pharmacological animal groups (10 animals per group, 80 animals in total and 5 animals per group in the satellite group; 50 animals in total used for analysis of plasma and tumor samples) were organized as such: • 1. Control virus-untreated group: test compound vehicle, oral gavage, once a day, for 2 days and starting 48 h after each virus injection time-point. • 2. Control virus vehicle-treated group: 100 μL of virus vehicle by intratumoral injection when tumors reached an average volume of ˜50 mm^3 (i.e. on day 11) then 2 injections spaced 5 days apart from each other; with test compound vehicle, oral gavage, once a day, for 2 days and starting 48 h after each virus injection time-point. • 3. HSV-1 (5×10^7 pfu)-treated group: 100 μL of HSV-1 (5×10^7) by intratumoral injection when tumors reached an average volume of ˜50 mm^3 (i.e. on day 11) then 2 injections spaced 5 days apart from each other; with test compound vehicle, oral gavage, once a day, for 2 days and starting 48 h after each virus injection time-point and with anti-PD-1 vehicle, intraperitoneal injection (100 μL PBS) on the same day as the virus injection, and then 3 administrations spaced 3 days apart from each other (days 11, 14, 17 and 20). • 4. HSV-1 (5×10^7 pfu)+anti-PD1-treated group: 100 μL of HSV-1 (5×10^7 pfu) intratumoral injection when tumors reached an average volume of ˜50 mm^3 (i.e. on day 11) then 2 injections spaced 5 days apart from each other; with test compound vehicle, oral gavage, once a day, for 2 days and starting 48 h after each virus injection time-point and with anti-PD-1 (5 mg/kg), intraperitoneal injection on the same day as the virus injection, and then 3 administrations spaced 3 days apart from each other (days 11, 14, 17 and 20). • 5. HSV-1 (5×10^7 pfu)-Example 10—treated group: 100 μL of HSV-1 (5×10^7 pfu) intratumoral injection when tumors reached an average volume of ˜50 mm^3 (i.e. on day 11) then 2 injections spaced 5 days apart from each other; with Example 10 (10 mg/kg), oral gavage, once a day, for 2 days and starting 48 h after each virus injection time-point (days 13, 14, 18, 19, 23 and 24). • 6. HSV-1 (5×10^7 pfu)-pritelivir-treated group: 100 μL of HSV-1 (5×10^7 pfu) intratumoral injection when tumors reached an average volume of ˜50 mm^3 (i.e. on day 11) then 2 injections spaced 5 days apart from each other; with pritelivir (10 mg/kg), oral gavage, once a day, for 2 days and starting 48 h after each virus injection time-point (days 13, 14, 18, 19, 23 and 24). • 7. HSV-1 (5×10^7 pfu)-amenamevir-treated group: 100 μL of HSV-1 (5×10^7 pfu) intratumoral injection when tumors reached an average volume of ˜5 0mm^3 (i.e. on day 11) then 2 injections spaced 5 days apart from each other; with amenamevir (10 mg/kg), oral gavage, once a day, for 2 days and starting 48 h after each virus injection time-point (days 13, 14, 18, 19, 23 and 24). • 8. HSV-1 (5×10^7 pfu)-Example 10+anti-PD1-treated group: 100 μL of HSV-1 (5×10^7 pfu) intratumoral injection when tumors reached an average volume of ˜50 mm^3 (i.e. on day 11) then 2 injections spaced 5 days apart from each other; with Example 10 (10 mg/kg), oral gavage, once a day, for 2 days and starting 48 h after each virus injection time-point (days 13, 14, 18, 19, 23 and 24) and with anti-PD-1 (5 mg/kg), intraperitoneal injection on the same day as the virus injection and then 3 administrations spaced 3 days apart each other (days 11, 14, 17 and 20). Results of the Second oHSV Experiment […]

carboanhydrase = conditions: described in WO2019/068817; cited from earlier work
[3] = described in WO2019/068817; cited from earlier work

Structure (SMILES): Cc1nc(N(C)C(=O)C2Cc3ccc(-c4cc(F)ccc4F)cc3C2)sc1S(N)(=O)=O (racemic) [Example 1, 5-(2,5-Difluorophenyl)-N-methyl-N-(4-methyl-5-sulfamoylthiazol-2-yl)-2,3-di-hydro-1H-indene-2-carboxamide]
- IC50 (HSV-1 [1]; Human alphaherpesvirus 1, Vero): 16 nM
- IC50 (HSV-2; Human alphaherpesvirus 2, Vero): 50 nM
- IC50 (HSV-1 ACV resistant): 16 nM

Structure (SMILES): Cc1nc(N(C)C(=O)C2Cc3ccc(-c4cc(F)ccc4F)cc3C2)sc1S(C)(=N)=O (racemic) [Example 4, 5-(2,5-Difluorophenyl)-N-methyl-N-(4-methyl-5-(S-methylsulfonimidoyl)thiazol-2-yl)-2,3-dihydro-1H-indene-2-carboxamide]
- IC50 (HSV-1 [1]; Human alphaherpesvirus 1, Vero): 750 nM
- IC50 (HSV-2; Human alphaherpesvirus 2, Vero): 1500 nM
- IC50 (HSV-1 ACV resistant): 750 nM

Structure (SMILES): Cc1nc(N(C)C(=O)C2Cc3ccc(-c4cc(F)ccc4F)cc3C2)sc1S(C)(=N)=O (single isomer, unassigned) [Example 5, 5-(2,5-Difluorophenyl)-N-methyl-N-(4-methyl-5-(S-methylsulfonimidoyl)thiazol-2-yl)-2,3-dihydro-1H-indene-2-carboxamide]
- IC50 (HSV-1 [1]): 20000 nM
- IC50 (HSV-2): 20000 nM

Structure (SMILES): Cc1nc(N(C)C(=O)C2Cc3ccc(-c4cc(F)ccc4F)cc3C2)sc1S(C)(=N)=O (single isomer, unassigned) [Example 6, 5-(2,5-Difluorophenyl)-N-methyl-N-(4-methyl-5-(S-methylsulfonimidoyl)thiazol-2-yl)-2,3-dihydro-1H-indene-2-carboxamide]
- IC50 (HSV-1 [1]): 75 nM
- IC50 (HSV-2): 750 nM

Structure (SMILES): Cc1nc(N(C)C(=O)C2Cc3ccc(-c4cc(F)ccc4F)cc3C2)sc1S(C)(=N)=O (single isomer, unassigned) [Example 8, 5-(2,5-Difluorophenyl)-N-methyl-N-(4-methyl-5-(S-methylsulfonimidoyl)thiazol-2-yl)-2,3-dihydro-1H-indene-2-carboxamide]
- IC50 (HSV-1 [1]): 175 nM
- IC50 (HSV-2): 1500 nM

Structure (SMILES): Cc1nc(N(C)C(=O)C2Cc3ccc(-c4cc(F)ccc4F)cc3C2)sc1S(C)(=N)=O (single isomer, unassigned) [Example 9, 5-(2,5-Difluorophenyl)-N-methyl-N-(4-methyl-5-(S-methylsulfonimidoyl)thiazol-2-yl)-2,3-dihydro-1H-indene-2-carboxamide]
- IC50 (HSV-1 [1]): 10000 nM
- IC50 (HSV-2): 45000 nM

Structure (SMILES): Cc1nc(N(C)C(=O)C2Cc3ccc(-c4cc(F)ccc4F)cc3C2)sc1S(N)(=O)=O (single isomer, unassigned; (+)) [Example 3, (+)-5-(2,5-difluorophenyl)-N-methyl-N-(4-methyl-5-sulfamoylthiazol-2-yl)-2,3-dihydro-1H-indene-2-carboxamide]
- IC50 (HSV-1 [1]): 0.5 nM
- IC50 (HSV-2): 16 nM

Structure (SMILES): Cc1nc(N(C)C(=O)C2Cc3ccc(-c4cc(F)ccc4F)cc3C2)sc1S(N)(=O)=O (single isomer, unassigned; (-)) [Example 2, (−)-5-(2,5-Difluorophenyl)-N-methyl-N-(4-methyl-5-sulfamoylthiazol-2-yl)-2,3-dihydro-1H-indene-2-carboxamide]
- IC50 (HSV-1 [1]): 2000 nM
- IC50 (HSV-2): 16000 nM

Structure (SMILES): Nc1nc2c(ncn2COCCO)c(=O)[nH]1 [Acyclovir, reference compound]
- IC50 (HSV-1 [1]; Human alphaherpesvirus 1, Vero): 500 to 3000 nM
- IC50 (HSV-2; Human alphaherpesvirus 2, Vero): 500 to 3000 nM
- IC50 (HSV-1 ACV resistant): > 25000 nM

Structure (SMILES): Cc1nc(N(C)C(=O)Cc2ccc(-c3cc(F)ccc3F)cc2)sc1S(N)(=O)=O [Example 10, 2-(2′,5′-Difluoro-[1,1′-biphenyl]-4-yl)-N-methyl-N-(4-methyl-5-sulfamoylthiazol-2-yl)acetamide]
- Number of dead animals by day (HSV-1 [2]; day 7, HSV-1 5×10^7 pfu + Example 10 10 mg/kg po): 0
- Number of dead animals by day (HSV-1 [2]; day 7, HSV-1 5×10^7 pfu + anti-PD-1 5 mg/kg ip + Example 10 10 mg/kg po): 0
- Number of dead animals by day (HSV-1 [2]; day 9, HSV-1 5×10^7 pfu + Example 10 10 mg/kg po): 0
- Number of dead animals by day (HSV-1 [2]; day 9, HSV-1 5×10^7 pfu + anti-PD-1 5 mg/kg ip + Example 10 10 mg/kg po): 0
- Number of dead animals by day (HSV-1 [2]; day 11, HSV-1 5×10^7 pfu + Example 10 10 mg/kg po): 0
- Number of dead animals by day (HSV-1 [2]; day 11, HSV-1 5×10^7 pfu + anti-PD-1 5 mg/kg ip + Example 10 10 mg/kg po): 0
- Number of dead animals by day (HSV-1 [2]; day 14, HSV-1 5×10^7 pfu + Example 10 10 mg/kg po): 0
- Number of dead animals by day (HSV-1 [2]; day 14, HSV-1 5×10^7 pfu + anti-PD-1 5 mg/kg ip + Example 10 10 mg/kg po): 0
- Number of dead animals by day (HSV-1 [2]; day 16, HSV-1 5×10^7 pfu + Example 10 10 mg/kg po): 0
- Number of dead animals by day (HSV-1 [2]; day 16, HSV-1 5×10^7 pfu + anti-PD-1 5 mg/kg ip + Example 10 10 mg/kg po): 0
- Number of dead animals by day (HSV-1 [2]; day 18, HSV-1 5×10^7 pfu + Example 10 10 mg/kg po): 1
- Number of dead animals by day (HSV-1 [2]; day 18, HSV-1 5×10^7 pfu + anti-PD-1 5 mg/kg ip + Example 10 10 mg/kg po): 1
- Number of dead animals by day (HSV-1 [2]; day 21, HSV-1 5×10^7 pfu + Example 10 10 mg/kg po): 1
- Number of dead animals by day (HSV-1 [2]; day 21, HSV-1 5×10^7 pfu + anti-PD-1 5 mg/kg ip + Example 10 10 mg/kg po): 1
- rescue of mice from virus-induced death (HSV-1 [2]): the mice can be rescued

Structure (SMILES): Cc1cccc(C)c1N(CC(=O)Nc1ccc(-c2ncon2)cc1)C(=O)C1CCS(=O)(=O)CC1 [amenamevir, Amenamevir]
- Number of dead animals by day (HSV-1 [2]; day 7, HSV-1 5×10^7 pfu + amenamevir 10 mg/kg po): 0
- Number of dead animals by day (HSV-1 [2]; day 9, HSV-1 5×10^7 pfu + amenamevir 10 mg/kg po): 0
- Number of dead animals by day (HSV-1 [2]; day 11, HSV-1 5×10^7 pfu + amenamevir 10 mg/kg po): 0
- Number of dead animals by day (HSV-1 [2]; day 14, HSV-1 5×10^7 pfu + amenamevir 10 mg/kg po): 0
- Number of dead animals by day (HSV-1 [2]; day 16, HSV-1 5×10^7 pfu + amenamevir 10 mg/kg po): 0
- Number of dead animals by day (HSV-1 [2]; day 18, HSV-1 5×10^7 pfu + amenamevir 10 mg/kg po): 2
- Number of dead animals by day (HSV-1 [2]; day 21, HSV-1 5×10^7 pfu + amenamevir 10 mg/kg po): 2
- rescue of mice from virus-induced death (HSV-1 [2]): the mice can be rescued

Structure (SMILES): Cc1nc(N(C)C(=O)Cc2ccc(-c3cc(F)ccc3F)cc2)sc1[S@@](C)(=N)=O [drawing 1]
- off-target carboanhydrase activity (carboanhydrase): no off-target carboanhydrase activity
- brain penetration [3]: improved brain penetration

Structure (SMILES): Cc1nc(N(C)C(=O)Cc2ccc(-c3ccccn3)cc2)sc1S(N)(=O)=O [pritelivir, Pritelivir]
- Number of dead animals by day (HSV-1 [2]; day 7, HSV-1 5×10^7 pfu + pritelivir 10 mg/kg po): 0
- Number of dead animals by day (HSV-1 [2]; day 9, HSV-1 5×10^7 pfu + pritelivir 10 mg/kg po): 0
- Number of dead animals by day (HSV-1 [2]; day 11, HSV-1 5×10^7 pfu + pritelivir 10 mg/kg po): 0
- Number of dead animals by day (HSV-1 [2]; day 14, HSV-1 5×10^7 pfu + pritelivir 10 mg/kg po): 0
- Number of dead animals by day (HSV-1 [2]; day 16, HSV-1 5×10^7 pfu + pritelivir 10 mg/kg po): 0
- Number of dead animals by day (HSV-1 [2]; day 18, HSV-1 5×10^7 pfu + pritelivir 10 mg/kg po): 0
- Number of dead animals by day (HSV-1 [2]; day 21, HSV-1 5×10^7 pfu + pritelivir 10 mg/kg po): 0
- rescue of mice from virus-induced death (HSV-1 [2]): the mice can be rescued
